In US20240239752A1, “BICYCLIC HETEROAROMATIC INHIBITORS OF KLK5” (BioCryst Pharmaceuticals, Inc., priority 2021, published 2024) one finds IC50 data, which are given here for 29 molecules.

SMILES strings stand for the structures.

For this test, the target named is T1, recombinant human KLK5 (Homo sapiens, UniProt Q9Y337).
T1 construct: purchased Novoprotein or R&D Systems C415 or 1108-SE
T1 sequence (Q9Y337 23-293): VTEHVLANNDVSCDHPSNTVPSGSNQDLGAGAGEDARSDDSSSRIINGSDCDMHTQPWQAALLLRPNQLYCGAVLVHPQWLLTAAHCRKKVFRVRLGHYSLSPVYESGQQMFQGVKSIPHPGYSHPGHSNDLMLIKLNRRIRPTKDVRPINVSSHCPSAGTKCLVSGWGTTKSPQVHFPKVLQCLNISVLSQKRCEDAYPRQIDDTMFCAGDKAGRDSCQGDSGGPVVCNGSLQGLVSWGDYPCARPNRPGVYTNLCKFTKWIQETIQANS
Description: Kallikrein (KLK) 5 enzymatic assay (Boc-VPR-AMC fluorogenic substrate). The class given is biochemical. As to conditions: recombinant human KLK5 0.1 μg/well, Boc-VPR-AMC 100 μM, pH 7.5, room temperature, 1% DMSO; tested a minimum of three times. The gist of the method: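 Fluorogenic rate assay at pH 7.5 (0.1 M NaH2PO4, 1% DMSO, room temperature), run at least three times per compound. Compound was premixed with 0.1 μg/well recombinant human KLK5 before adding 100 μM Boc-VPR-AMC; AMC release was read at ex 380/em 460 nm, and IC50 derived from inhibition of rate vs DMSO control.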
For the molecule `Nc1nccc2ccc(-c3ccc4c(c3)[C@H](Oc3cc(F)ccc3CC(=O)O)CC4)cc12` [Compound 421c, (R)-2-(2-((6-(1-aminoisoquinolin-7-yl)-2,3-dihydro-1H-inden-1-yl)oxy)-4-fluorophenyl)acetic acid], the IC50 was under 1000 nM.

As to `Nc1nccc2c(-c3ccc4c(c3)[C@H](Oc3cc(F)ccc3CC(=O)O)CC4)cccc12` [Compound 422b, (R)-2-(2-((6-(1-aminoisoquinolin-5-yl)-2,3-dihydro-1H-inden-1-yl)oxy)-4-fluorophenyl)acetic acid], the half-inhibitory concentration (IC50) was under 1000 nM.

Regarding `N#Cc1ccc(CC(=O)O)c(O[C@@H]2CCc3ccc(-c4ccc5ccnc(N)c5c4)cc32)c1` [Compound 423c, (R)-2-(2-((6-(1-aminoisoquinolin-7-yl)-2,3-dihydro-1H-inden-1-yl)oxy)-4-cyanophenyl)acetic acid], the IC50 was under 1000 nM.

`N#Cc1ccc(CC(=O)O)c(O[C@@H]2CCc3ccc(-c4cccc5c(N)nccc45)cc32)c1` [Compound 424b, (R)-2-(2-((6-(1-aminoisoquinolin-5-yl)-2,3-dihydro-1H-inden-1-yl)oxy)-4-cyanophenyl)acetic acid]: the IC50 was under 1000 nM.

With `Cc1ccc(CC(=O)O)c(O[C@@H]2CCc3ccc(-c4ccc5ccnc(N)c5c4)cc32)c1` [Compound 425c, (R)-2-(2-((6-(1-aminoisoquinolin-7-yl)-2,3-dihydro-1H-inden-1-yl)oxy)-4-methylphenyl)acetic acid], the IC50 was under 1000 nM.

Take `Cc1ccc(CC(=O)O)c(O[C@@H]2CCc3ccc(-c4cccc5c(N)nccc45)cc32)c1` [Compound 426b, (R)-2-(2-((6-(1-aminoisoquinolin-5-yl)-2,3-dihydro-1H-inden-1-yl)oxy)-4-methylphenyl)acetic acid]: the IC50 was under 1000 nM.

For `Nc1nccc2ccc(-c3ccc4c(c3)[C@H](Oc3cc(C(F)(F)F)ccc3CC(=O)O)CC4)cc12` [Compound 427c, (R)-2-(2-((6-(1-aminoisoquinolin-7-yl)-2,3-dihydro-1H-inden-1-yl)oxy)-4-(trifluoromethyl)phenyl)acetic acid], the IC50 is under 1000 nM.

As for `Nc1nccc2c(-c3ccc4c(c3)[C@H](Oc3cc(C(F)(F)F)ccc3CC(=O)O)CC4)cccc12` [Compound 428b, (R)-2-(2-((6-(1-aminoisoquinolin-5-yl)-2,3-dihydro-1H-inden-1-yl)oxy)-4-(trifluoromethyl)phenyl)acetic acid], the IC50 was under 1000 nM.

As for `N#Cc1cccc(CC(=O)O)c1O[C@@H]1CCc2ccc(-c3ccc4ccnc(N)c4c3)cc21` [Compound 429d, (R)-2-(2-((6-(1-aminoisoquinolin-7-yl)-2,3-dihydro-1H-inden-1-yl)oxy)-3-cyanophenyl)acetic acid], the IC50 was in the range of 1000 to 10000 nM.

Take `N#Cc1cccc(CC(=O)O)c1O[C@@H]1CCc2ccc(-c3cccc4c(N)nccc34)cc21` [Compound 430b, (R)-2-(2-((6-(1-aminoisoquinolin-5-yl)-2,3-dihydro-1H-inden-1-yl)oxy)-3-cyanophenyl)acetic acid]: the IC50 was in the range of 1000 to 10000 nM.

Turning to `COc1ccc(O[C@@H]2CCc3ccc(-c4cccc5c(N)nccc45)cc32)c(CC(=O)O)c1` [Compound 431c, (R)-2-(2-((6-(1-aminoisoquinolin-5-yl)-2,3-dihydro-1H-inden-1-yl)oxy)-5-methoxyphenyl)acetic acid], the IC50 was under 1000 nM.

As for `N#Cc1cccc(O[C@@H]2CCc3ccc(-c4ccc5ccnc(N)c5c4)cc32)c1CC(=O)O` [Compound 432c, (R)-2-(2-((6-(1-aminoisoquinolin-7-yl)-2,3-dihydro-1H-inden-1-yl)oxy)-6-cyanophenyl)acetic acid], the IC50 was in the range of 1000 to 10000 nM.

In the case of `N#Cc1cccc(O[C@@H]2CCc3ccc(-c4cccc5c(N)nccc45)cc32)c1CC(=O)O` [Compound 433b, (R)-2-(2-((6-(1-aminoisoquinolin-5-yl)-2,3-dihydro-1H-inden-1-yl)oxy)-6-cyanophenyl)acetic acid], the IC50 is under 1000 nM.

Regarding `Nc1nccc2ccc(-c3ccc4c(c3)[C@H](Oc3cccc(OC(F)(F)F)c3CC(=O)O)CC4)cc12` [Compound 434c, (R)-2-(2-((6-(1-aminoisoquinolin-7-yl)-2,3-dihydro-1H-inden-1-yl)oxy)-6-(trifluoromethoxy)phenyl)acetic acid], the IC50 lay within 1000 to 10000 nM.

Consider `Nc1nccc2c(-c3ccc4c(c3)[C@H](Oc3cccc(OC(F)(F)F)c3CC(=O)O)CC4)cccc12` [Compound 435b, (R)-2-(2-((6-(1-aminoisoquinolin-5-yl)-2,3-dihydro-1H-inden-1-yl)oxy)-6-(trifluoromethoxy)phenyl)acetic acid], for which the IC50 was under 1000 nM.

Take `CCN1CCC2(CC1)C[C@@H](Oc1ccccc1CC(=O)O)c1cc(-c3ccc4ccnc(N)c4c3)ccc12` [Compound 436b, (R)-2-(2-((5-(1-aminoisoquinolin-7-yl)-1′-ethyl-2,3-dihydrospiro[indene-1,4′-piperidin]-3-yl)oxy)phenyl)acetic acid]: the concentration for half-maximal inhibition (IC50) is under 1000 nM.

Take `CC1(C)Cc2ccc(-c3cccc4c(N)nccc34)cc2C1Oc1ccccc1CC(=O)O` (centres unmarked) [Compound 437f, 2-(2-((6-(1-aminoisoquinolin-5-yl)-2,2-dimethyl-2,3-dihydro-1H-inden-1-yl)oxy)phenyl)acetic acid]: the IC50 was under 1000 nM.

Consider `CC1(C)Cc2ccc(-c3cccc4c(N)nccc34)cc2C1Oc1cc(F)ccc1CC(=O)O` (centres unmarked) [Compound 438c, 2-(2-((6-(1-aminoisoquinolin-5-yl)-2,2-dimethyl-2,3-dihydro-1H-inden-1-yl)oxy)-4-fluorophenyl)acetic acid], for which the IC50 is under 1000 nM.

As to `CC1(C)Cc2ccc(-c3ccc4ccnc(N)c4c3)cc2C1Oc1cc(F)ccc1CC(=O)O` (centres unmarked) [Compound 439b, 2-(2-((6-(1-aminoisoquinolin-7-yl)-2,2-dimethyl-2,3-dihydro-1H-inden-1-yl)oxy)-4-fluorophenyl)acetic acid], the IC50 lay within 1000 to 10000 nM.

Regarding `COc1ccc(CC(=O)O)c(OC2c3cc(-c4cccc5c(N)nccc45)ccc3CC2(C)C)c1` (centres unmarked) [Compound 440c, 2-(2-((6-(1-aminoisoquinolin-5-yl)-2,2-dimethyl-2,3-dihydro-1H-inden-1-yl)oxy)-4-methoxyphenyl)acetic acid], the IC50 was under 1000 nM.

Regarding `COc1ccc(CC(=O)O)c(OC2c3cc(-c4ccc5ccnc(N)c5c4)ccc3CC2(C)C)c1` (centres unmarked) [Compound 441b, 2-(2-((6-(1-aminoisoquinolin-7-yl)-2,2-dimethyl-2,3-dihydro-1H-inden-1-yl)oxy)-4-methoxyphenyl)acetic acid], the IC50 lay in the range of 1000 to 10000 nM.

On to `Nc1nccc2c(-c3ccc4c(c3)C(Oc3cc(F)ccc3CC(=O)O)CC43CCCC3)cccc12` (centres unmarked) [Compound 442c, 2-(2-((5′-(1-aminoisoquinolin-5-yl)-2′,3′-dihydrospiro[cyclopentane-1,1′-inden]-3′-yl)oxy)-4-fluorophenyl)acetic acid], for which the IC50 was under 1000 nM.

Regarding `Nc1nccc2ccc(-c3ccc4c(c3)C(Oc3cc(F)ccc3CC(=O)O)CC43CCCC3)cc12` (centres unmarked) [Compound 443b, 2-(2-((5′-(1-aminoisoquinolin-7-yl)-2′,3′-dihydrospiro[cyclopentane-1,1′-inden]-3′-yl)oxy)-4-fluorophenyl)acetic acid], the IC50 is under 1000 nM.

Turning to `COCCC1(CCOC)CC(Oc2ccccc2CC(=O)O)c2cc(-c3ccc4ccnc(N)c4c3)ccc21` (centres unmarked) [Compound 446f, 2-(2-((6-(1-aminoisoquinolin-7-yl)-3,3-bis(2-methoxyethyl)-2,3-dihydro-1H-inden-1-yl)oxy)phenyl)acetic acid], the IC50 is under 1000 nM.

As for `COCCC1(CCOC)CC(Oc2ccccc2CC(=O)O)c2cc(-c3cccc4c(N)nccc34)ccc21` (centres unmarked) [Compound 447b, 2-(2-((6-(1-aminoisoquinolin-5-yl)-3,3-bis(2-methoxyethyl)-2,3-dihydro-1H-inden-1-yl)oxy)phenyl)acetic acid], the IC50 was under 1000 nM.

In the case of `Cc1cccc(OC2CC3(CCN(S(C)(=O)=O)CC3)c3ccc(-c4ccc5ccnc(N)c5c4)cc32)c1CC(=O)O` (centres unmarked) [Compound 448c, 2-(2-((5-(1-aminoisoquinolin-7-yl)-1′-(methylsulfonyl)-2,3-dihydrospiro[indene-1,4′-piperidin]-3-yl)oxy)-6-methylphenyl)acetic acid], the IC50 is under 1000 nM.

For `Cc1cccc(OC2CC3(CCN(S(C)(=O)=O)CC3)c3ccc(-c4cccc5c(N)nccc45)cc32)c1CC(=O)O` (centres unmarked) [Compound 449b, 2-(2-((5-(1-aminoisoquinolin-5-yl)-1′-(methylsulfonyl)-2,3-dihydrospiro[indene-1,4′-piperidin]-3-yl)oxy)-6-methylphenyl)acetic acid], the 50% inhibitory concentration (IC50) was under 1000 nM.

`Cc1cccc(OC2CC3(CCN(C(=O)OCC(C)C)CC3)c3ccc(-c4ccc5ccnc(N)c5c4)cc32)c1CC(=O)O` (centres unmarked) [Compound 450c, 2-(2-((5-(1-aminoisoquinolin-7-yl)-1′-(isobutoxycarbonyl)-2,3-dihydrospiro[indene-1,4′-piperidin]-3-yl)oxy)-6-methylphenyl)acetic acid]: the IC50 is under 1000 nM.

With `Cc1cccc(OC2CC3(CCN(C(=O)OCC(C)C)CC3)c3ccc(-c4cccc5c(N)nccc45)cc32)c1CC(=O)O` (centres unmarked) [Compound 451b, 2-(2-((5-(1-aminoisoquinolin-5-yl)-1′-(isobutoxycarbonyl)-2,3-dihydrospiro[indene-1,4′-piperidin]-3-yl)oxy)-6-methylphenyl)acetic acid], the IC50 is under 1000 nM.

A word on the IC50: it is the concentration that inhibits the measured activity by half.
